From patent publication US20240058481A1, “RADIOLABELLED COMPOUNDS FOR DIAGNOSING CHOLINERGIC NEURODEGENERATIVE DISEASES” (CENTRE NATIONAL DE LA RECHERCHE SCIENTIFIQUE, priority 2020, published 2024)

Assays:
VAChT [1] = biological target: T1, VAChT (Rattus norvegicus, UniProt Q62666); assay: Radioligand ([3H]vesamicol) binding on rat brain membrane preparation, affinity for VAChT; settings: rat brain membranes, mean ± standard deviation of 3 independent experiments, Cheng & Prussoff
T1 construct: The entire brain was sampled and dissected in different regions: cortex, striatum, hippocampus, thalamus and cerebellum; from tissue; host or cells: brain regions of male Wistar rats (in vivo tracer injection, ex vivo counting)
T1 sequence (Q62666 1-530): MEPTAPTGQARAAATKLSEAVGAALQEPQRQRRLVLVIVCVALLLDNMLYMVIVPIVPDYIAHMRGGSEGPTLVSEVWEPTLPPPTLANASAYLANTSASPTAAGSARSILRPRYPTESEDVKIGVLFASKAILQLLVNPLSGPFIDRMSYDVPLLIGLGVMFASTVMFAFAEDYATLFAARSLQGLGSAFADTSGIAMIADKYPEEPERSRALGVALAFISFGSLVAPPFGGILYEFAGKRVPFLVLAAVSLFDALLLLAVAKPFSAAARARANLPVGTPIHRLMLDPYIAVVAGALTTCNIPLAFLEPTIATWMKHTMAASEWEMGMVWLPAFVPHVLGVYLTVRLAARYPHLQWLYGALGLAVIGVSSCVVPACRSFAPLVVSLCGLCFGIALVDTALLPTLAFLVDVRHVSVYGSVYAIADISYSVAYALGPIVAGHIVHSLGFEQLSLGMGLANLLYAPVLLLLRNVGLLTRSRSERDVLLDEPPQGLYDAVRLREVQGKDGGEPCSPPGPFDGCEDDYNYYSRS
Method: Measurement of the affinity of the different compounds for VAChT was obtained by radioligand binding method on rat brain membrane preparation, following the method described in Scheunemann et al. (Bioorg Med Chem 2004;12:1459-65). The L-(−)-vesamicol was supplied by Sigma Aldrich (Saint-Quentin-Fallavier, France) and [^3H]vesamicol (specific activity 1705.7 GBq/mmol) by Perkin-Elmer (Courtaboeuf, France). The IC50 values were determined graphically for each compound and Ki (inhibition constant) was calculated following the method of Cheng & Prussoff (Biochemical pharmacology 1973;22:3099-108). The results are expressed as a mean of Ki values±standard deviation from the mean after 3 independent experiments.

VAChT [2] = biological target: T1, VAChT; assay: Biodistribution: cerebral accumulation of the tracers in the rat; assay type: in vivo; settings: for Striatum/cerebellum accumulation ratio / Cerebral accumulation, cerebellum / Cerebral accumulation, striatum: 2 hours after i.v. injection of the tracer; for Cerebral accumulation, cerebellum / Cerebral accumulation, striatum: ± SEM, n=6/group
Method: Animals: The experiments were conducted in male rates of Wistar strain weighing 250-300 g (Breeding Centre R. Janvier, Le Genest St Isle, France). All procedures were carried out paying heed to European regulations on animal experimentation (2010/63/EU) with authorisation from the regional ethics committee on animal experiments: Comité Régional d'Ethique en Expérimentation Animale.
Biodistribution studies: The rats in the control group were given an i.v. injection of tracer (4-6 MBq in 0.3 mL) under isoflurane gas anaesthesia (n=6/group). In the VES group (n=6/group), injection of the tracer was preceded (5 min) by an i.v. injection of vesamicol (0.5 μmol/kg). The rats were sacrificed by decapitation 2 h after injection of the tracer. The entire brain was sampled and dissected in different regions: cortex, striatum, hippocampus, thalamus and cerebellum. Blood and bone fractions were also sampled. The biological samples were weighed, the radioactivity thereof was measured with a γ counter (2480 Gamma counter Wizard, Perkin Elmer), and the percentage of injected dose/g of tissue (% ID/g) was calculated.

Ki (VAChT [1]) [nM]	Striatum/cerebellum accumulation ratio (VAChT [2]; rat)	Cerebral accumulation, cerebellum (VAChT [2]; rat) [% ID/g]	Cerebral accumulation, striatum (VAChT [2]; rat) [% ID/g]	Compound	other results
1.3				OC1Cc2cccc(F)c2CC1N1CCC(c2ccccc2)CC1 (racemic) [rac (+/−)-5-FBVM Trans, 5-Fluoro-3-(4-phenylpiperidin-1-yl)-1,2,3,4-tetrahydronaphthalen-2-ol]	In vivo stability (VAChT [2]; in vivo PET tracer in the rat): good; Passing through the blood-brain barrier (VAChT [2]; in vivo PET tracer in the rat): excellent
	1.52	0.215 ± 0.011	0.327 ± 0.015	O[C@H]1Cc2cccc([18F])c2C[C@@H]1N1CCC(c2ccccc2)CC1 [(+)-(S,S)-5-[^18F]FBVM ^18F E2]	
61 ± 2.8				OC1Cc2cccc(OCCF)c2CC1N1CCC(c2ccccc2)CC1 (single isomer, unassigned; (-)) [(−)-FEOBV, 5-fluoroethoxybenzovesamicol, reference compound]	
	5.84	0.232 ± 0.017	1.356 ± 0.069	O[C@@H]1Cc2cccc([18F])c2C[C@H]1N1CCC(c2ccccc2)CC1 [(−)-(R,R)-5-FBVM ^18F E1]	Reduction of accumulation in the striatum after (−)vesamicol pre-administration (VAChT [2]; rat, (−)vesamicol 0.5 μmole/kg, 5 minutes before injection of the tracer): 46%
0.9				O[C@@H]1Cc2cccc(F)c2C[C@H]1N1CCC(c2ccccc2)CC1 [(−)-(R,R)-5-FBVM E1, (2R,3R)-5-Fluoro-3-(4-phenylpiperidin-1-yl)-1,2,3,4-tetrahydronaphthalen-2-ol]	
35				O[C@H]1Cc2cccc(F)c2C[C@@H]1N1CCC(c2ccccc2)CC1 [(+)-(S,S)-5-FBVM. E2, (2S,3S)-5-Fluoro-3-(4-phenylpiperidin-1-yl)-1,2,3,4-tetrahydronaphthalen-2-ol]	
	3.59	0.844 ± 0.025	0.235 ± 0.011	OC1Cc2cccc(OCCF)c2CC1N1CCC(c2ccccc2)CC1 (stereo not shown) [[^18F]FEOBV, 5-fluoroethoxybenzovesamicol, reference compound]	
